Experiments:
[1] = Test Example 2: Metabolic stability with mouse hepatic microsomes; type: in vitro ADME; conditions: after 30 minutes, 37° C., NADPH; note: tested at 0.99 µM
Description: Metabolic stability in mouse hepatic microsomes was evaluated with the following method.
• (1) Mouse hepatic microsomes: 20 mg/mL • (2) Test compound: 1.1 mM DMSO solution • (3) Potassium phosphate buffer solution: 66.7 mM (pH 7.4) • (4) NADPH solution: 10 mM in potassium phosphate buffer solution • (5) Quenching solution: 0.5% formic acid-acetonitrile solution with warfarin as internal standard substance
Into a propylene tube, 971.5 μL of the potassium phosphate buffer solution and 27.5 μL of the mouse hepatic microsomes were put, and suspended. Thereto, 1 μL of a test compound was added, and 180 μL was taken from this mixture and transferred into another tube. The mixture was preincubated at 37° C. for 5 minutes, and 20 μL of the NADPH solution (for the case with an incubation time of 30 minutes) or 20 μL of the potassium phosphate buffer solution (for the case with an incubation time of 0 minutes) was then added thereto. After incubation, 200 μL of the quenching solution was added to terminate the reaction. Subsequently, centrifugation was performed at 3220×g for 20 minutes, and the concentration of the unchanged form of the test compound in 200 μL of the supernatant was measured with LC-MS/MS. On the basis of the peak area obtained for the unchanged form, the residual rate (%) of the unchanged form was calculated as that for the case with an incubation time of 0 minutes was assumed as 100%.

[2] = Test Example 3: Metabolic stability with human hepatic microsomes; type: in vitro ADME; conditions: human hepatic microsomes 0.1 mg protein/mL, 0.1 μmol/L test compound, after 30 minutes, 37° C.
Description: For the compounds of Examples 1 to 9, which had been confirmed to have stability in the mouse hepatic microsome test, metabolic stability with human hepatic microsomes was measured. The specific method is as follows. • (1) Fifty microliter-portions were taken from 0.2 μmol/L test compound diluted with β-NADPH solution. • (2) Fifty microliters of 0.2 mg protein/mL human hepatic microsome solution was added to each (except for a sample with a reaction time of 0 minutes). • (3) Incubation was performed with shaking at 37° C. for 30 minutes (concentration in reaction sample: 0.1 μmol/L test compound, 0.1 mg protein/mL human hepatic microsome) • (4) After incubation, 400 μL of methanol was added to terminate the reaction. • (5) To the sample with a reaction time of 0 minutes, 50 μL of 0.2 mg protein/mL hepatic microsome solution was added. • (6) Each of the samples from (4) and (5) was left to stand at −20° C. for 30 minutes or longer, and then centrifuged at 4° C. and 3,000 rpm for approximately 10 minutes. • (7) The supernatant was subjected to measurement with LC/MS/MS, and, on the basis of the peak area obtained for the unchanged form, the residual rate (%) of the unchanged form was calculated as that for the case with an incubation time of 0 minutes was assumed as 100%.

[3] = biological target: T1, human recombinant ALDH2 enzyme (Homo sapiens, UniProt P05091); test: Test Example 1-2: ALDH2 activation effect (acetaldehyde oxidation rate, PicoProbe kit); type: biochemical; conditions: ALDH2 1 μg/mL, 60 min measurement
T1 construct: purchased Abcam ab87415
T1 sequence (P05091 18-517): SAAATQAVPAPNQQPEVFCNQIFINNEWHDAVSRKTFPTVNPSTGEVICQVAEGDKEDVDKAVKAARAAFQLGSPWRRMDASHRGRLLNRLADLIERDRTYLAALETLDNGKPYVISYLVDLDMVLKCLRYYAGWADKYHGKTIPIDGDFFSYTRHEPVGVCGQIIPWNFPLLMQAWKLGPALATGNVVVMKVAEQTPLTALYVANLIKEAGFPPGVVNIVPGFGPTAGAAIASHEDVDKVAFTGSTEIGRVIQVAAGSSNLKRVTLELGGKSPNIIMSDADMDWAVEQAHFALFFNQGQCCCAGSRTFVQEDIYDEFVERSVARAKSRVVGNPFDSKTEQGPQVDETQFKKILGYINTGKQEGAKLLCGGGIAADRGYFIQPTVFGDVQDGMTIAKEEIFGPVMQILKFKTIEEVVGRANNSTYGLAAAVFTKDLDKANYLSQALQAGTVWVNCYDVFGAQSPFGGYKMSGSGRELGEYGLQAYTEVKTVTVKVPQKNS
Description: (§1) The activation effect of each test compound on the acetaldehyde oxidation rate of ALDH2 was measured with the following method. A test was conducted by using a commercially available PicoProbe™ Aldehyde dehydrogenase Activity Assay Kit (manufactured by Abcam) with reference to an instruction attached to the product under the following conditions. To each well of a 384-well plate, the following (1) to (3) were sequentially added with a pipette: • (1) 10 μL of solution obtained by dissolving and diluting a human recombinant ALDH2 enzyme (manufactured by Abcam, product number: ab87415) with ALDH assay Buffer (final concentration: 1 μg/mL); • (2) 10 μL of 30 μM or 90 μM test compound solution (with 3% DMSO) prepared by using ALDH assay Buffer; and • (3) 10 μL of Reaction mix composed with ratio of 7.3 μL of ALDH assay Buffer, 0.6 μL of PicoProbe, 0.6 μL of Substrate Mix, and 1.5 μL of Acetaldehyde.
(§2) Before addition of (3), incubation was performed at room temperature for 5 minutes. After addition of (3), fluorescence intensity was measured at room temperature every 2.5 minutes over a period of 60 minutes by using an EnVision (manufactured by PerkinElmer Inc.) to determine the oxidation rate. Wavelengths of 535 nm and 587 nm were used for fluorescence intensities of excitation and emission, respectively.

[4] = biological target: T1, human recombinant ALDH2 enzyme; test: Test Example 1-1: ALDH2 activation effect (acetaldehyde oxidation rate, PicoProbe kit); type: biochemical; conditions: ALDH2 2 μg/mL, 180 min measurement
Description: as §1, with “by BioVision Inc.)” for “by Abcam)”, “concentration: 2” for “concentration: 1”, “of […]” for “of 7.3”, “PicoProbe, 0.3” for “PicoProbe, 0.6”
as §2, with “180” for “60”, “EnSight” for “EnVision”

| SMILES | Residual rate (%) of unchanged form [1] [%] | Residual rate (%) of unchanged form [2] [%] | acetaldehyde oxidation rate (no test compound = 100%) ([3]; test compound 10 μM) [%] | acetaldehyde oxidation rate (no test compound = 100%) ([3]; test compound 30 μM) [%] | acetaldehyde oxidation rate (no test compound = 100%) ([4]; test compound 10 μM) [%] | acetaldehyde oxidation rate (no test compound = 100%) ([4]; test compound 30 μM) [%] |
| --- | --- | --- | --- | --- | --- | --- |
| COCc1ccc(CNC(=O)c2c(Cl)cccc2Cl)cc1F [Comparative Example 3, reference compound] | 1 | – | – | – | – | – |
| O=C(NCc1ccc2c(c1)OCO2)c1c(Cl)cccc1Cl [Comparative Example 1, reference compound] | <1 | – | 220 | 275 | 199 | 225 |
| COc1ccc(CNC(=O)c2cc(-c3ncccc3CO)ccc2F)cn1 [Example 2, 2-Fluoro-5-(3-(hydroxymethyl)pyridin-2-yl)-N-((6-methoxypyridin-3-yl)methyl)benzamide] | 89 | >99 | – | – | 150 | 180 |
| COCc1ccc(CNC(=O)c2c(Cl)cccc2Br)cc1F [Comparative Example 4, reference compound] | <1 | – | – | – | – | – |
| COCc1ccc(CNC(=O)c2cc(-c3ncccc3CO)ccc2F)cn1 [Example 1, 2-Fluoro-5-(3-(hydroxymethyl)pyridin-2-yl)-N-((6-(methoxymethyl)pyridin-3-yl)methyl)benzamide] | 91 | 96 | – | – | 123 | 130 |
| COc1ccc(CNC(=O)c2cc(-c3ncccc3CO)ccc2OCC2CC2)cc1F [Comparative Example 2, reference compound] | 6 | – | – | – | – | – |
| COc1ncc(CNC(=O)c2cc(-c3ncccc3[C@@H](C)O)ccc2F)cc1F (single isomer, unassigned) [Example 4, 2-fluoro-N-((5-fluoro-6-methoxypyridin-3-yl)methyl)-5-(3-(1-hydroxyethyl)pyridin-2-yl)benzamide] | 93 | >99 | 133 | 155 | – | – |
| COCc1ccc(CNC(=O)c2c(F)cccc2Cl)cc1F [Comparative Example 5, reference compound] | <1 | – | – | – | – | – |
| COCc1ccc(CNC(=O)c2c(F)cccc2F)cc1F [Comparative Example 6, reference compound] | 1 | – | – | – | – | – |

Second part, the compound after the results:

| Residual rate (%) of unchanged form [1] [%] | Residual rate (%) of unchanged form [2] [%] | acetaldehyde oxidation rate (no test compound = 100%) ([3]; test compound 10 μM) [%] | acetaldehyde oxidation rate (no test compound = 100%) ([3]; test compound 30 μM) [%] | acetaldehyde oxidation rate (no test compound = 100%) ([4]; test compound 10 μM) [%] | acetaldehyde oxidation rate (no test compound = 100%) ([4]; test compound 30 μM) [%] | SMILES |
| --- | --- | --- | --- | --- | --- | --- |
| 90 | >99 | 154 | 224 | – | – | CC(C)Oc1ncc(CNC(=O)c2cc(-c3ncccc3CO)ccc2F)cc1F [Example 8, 2-Fluoro-N-((5-fluoro-6-isopropoxypyridin-3-yl)methyl)-5-(3-(hydroxymethyl)pyridin-2-yl)benzamide] |
| 96 | 89 | 331 | 415 | – | – | CCOc1ncc(CNC(=O)c2cc(-c3ncccc3CO)ccc2F)cc1F [Example 7, N-((6-Ethoxy-5-fluoropyridin-3-yl)methyl)-2-fluoro-5-(3-(hydroxymethyl)pyridin-2-yl)benzamide] |
| 92 | 93 | 182 | 283 | – | – | O=C(NCc1cnc(OC2CC2)c(F)c1)c1cc(-c2ncccc2CO)ccc1F [Example 9, N-((6-Cyclopropoxy-5-fluoropyridin-3-yl)methyl)-2-fluoro-5-(3-(hydroxymethyl)pyridin-2-yl)benzamide] |
| >99 | 47 | 125 | 139 | – | – | O=C(NCc1ccc(OC(F)F)nc1)c1cc(-c2ncccc2CO)ccc1F [Example 6, N-((6-(Difluoromethoxy)pyridin-3-yl)methyl)-2-fluoro-5-(3-(hydroxymethyl)pyridin-2-yl)benzamide] |
| 95 | 92 | 122 | 170 | – | – | COc1ncc(CNC(=O)c2cc(-c3ncccc3[C@@H](C)O)ccc2F)cc1F (single isomer, unassigned) [Example 5, 2-fluoro-N-((5-fluoro-6-methoxypyridin-3-yl)methyl)-5-(3-(1-hydroxyethyl)pyridin-2-yl)benzamide] |
